{"source": "patent US20260286322A1", "about": "“PROTEIN TYROSINE P[…] DOMAIN PEPTIDE DIMER FOR NERVOUS SYSTEM REPAIR” (NervGen Pharma Corp., priority 2023, published 2026)", "key": {"[1]": {"system": "rat model of thoracic traumatic Spinal Cord Injury (SCI)", "assay": "Basso, Beattie and Bresnahan (BBB) open-field locomotor rating scale in SCI rats", "format": "in vivo", "from_the_text": "The goal of this study is to test the efficacy of a novel peptide dimer (Intracellular Sigma blocking peptide (ISP) dimer according to the present disclosure on behavioral changes in a rat model of thoracic traumatic Spinal Cord Injury (SCI).\nAdult, female Lewis rats (~160 g on arrival) from Envigo were used as the subjects receiving the treatment in the study. The rats were assigned unique identification numbers (PGI ID and tail marks) and housed in ventilated cages. All rats were examined, handled, and weighed prior to initiation of the study to assure adequate health and suitability. During the course of the study, 12/12 light/dark cycles were maintained. The room temperature was maintained between […] and 23° C. with a relative humidity maintained around 50%. Chow and water were provided adlibitum for the duration of the study. The rats were randomly assigned across treatment groups. Body weights were taken twice a week during the study.\nLyophilized Compound 8 was dissolved in saline and injected s.c. at a volume of 500 μl to animal once daily from day 1-day 49 post spinal cord injury.\nThe dose concentration was 0.8 mg/ml, corresponding to 400 μg/rat. After reconstitutions, the solution was aliquoted and kept at −20° C. until dosing.\n12-13 rats were used in each of the following two groups: • 1. Control group: SCI+Saline • 2. Testing group: SCI+Compound 8 in Saline.\nSpinal cord injury (SCI) was introduced to the rats by surgery using the Infinite Horizon (IH) Impactor (200 kDyn force) described by Scheff et al. 2003. The surgery was performed with aseptic procedures in a designated area under deep anesthesia. Rats were anesthetized with isoflurane (4% for induction, 2% for maintenance), and O2 (300 cm^3/min) mixture. Hair was removed from the surgical site with clippers and the skin wase scrubbed with an antiseptic detergent. To maintain body temperature the animals were placed upon a homoeothermic blanket system. The T8 Vertebra of the rat was located externally, and an incision was made exposing the vertebral column from T6-T11. A laminectomy was performed using a surgical microscope to expose the dorsal spinal cord at the thoracic (T8) vertebral level. The vertebral column was stabilized by clamping the nearest rostral and caudal vertebral processes and the injury was produced using the IH impactor device at a 200 kDyn force. After each lesion the IH graphs and impact data were reviewed and recorded, rats presenting an impact force more than 10% higher or lower than expected and/or any abnormality on the force/displacement impact graphs were excluded from the study. Additionally, animals scoring more than 1 points in the Basso, Beattie and Bresnahan (BBB) score scale at 1 days after SCI were excluded for the study as well.\nLocomotion changes were assessed using an open-field locomotor test (the Ohio State BBB Locomotor Rating Scale developed by Basso, et al. 1995). During each test, rats were observed moving around an empty wading pool for 4 minutes. Movements of joints in the hind limbs, weight support, and coordination between limbs were scored according to the BBB scale. This scale tracks the progressive recovery of hind-limb function following thoracic SCI. The scale can be divided into three parts reflecting the stages of recovery. […] BBB was assessed on days 1, 4 and 7 post injury and then weekly until completion of the study.\nThe BBB score scale obtained at day 1 after SCI was used to keep injury consistency. […] At Day 1 after SCI, only animals scoring either 0 (no observable hind-limb movement) or 1 (slight movement of one or two hind-limbs joins) in the BBB scale were enrolled in the study and allocated into treatment groups. The treatments groups were balanced using the BBB score obtained at day 1 after SCI.\nData was analyzed by analysis of variance (ANOVA) followed by post-hoc comparisons where appropriate. An effect was considered significant if p<0.05. […]"}, "SCI rats": {"system": "SCI rats", "assay": "BBB sub-score (toe clearance, paw position, trunk stability, tail position) in SCI rats", "format": "in vivo, rat", "procedure": "Animals were prepared according to the methods described above in Example 3.\nLyophilized Compound 8 and Compound 4 were separately dissolved in saline and injected s.c. at a volume of 500 μl to animal once daily from day 1-day 49 post spinal cord injury.\nThe target dose concentration was 0.8 mg/ml. After reconstitutions, the solutions were aliquoted and kept at −20° C. until dosing.\n12-13 rats were used in each of the following three groups: • 1) Control group: SCI+saline alone • 2) Testing group: SCI+Compound 4 in saline • 3) Testing group: SCI+Compound 8 in saline.\nSpinal cord injury (SCI) was introduced to the animals and post-operative care was provided to the animals according to the methods described in Example 3.\nThe BBB sub-scores quantify the recovery of toe clearance, paw position, trunk stability and tail use independent of forelimb-hindlimb coordination. BBB sub-scores were calculated using the observations recorded in the BBB records sheets. During BBB testing, the predominant position of the hind paws (parallel vs rotated), toe clearance, trunk stability and tail position (up, down, middle) were evaluated for animals reaching a BBB score of 10 or higher. Animals scoring less than 10 in BBB scale were considered to have BBB sub-score of “0”.\nAs described above in Example 3, the upper points on the BBB scale (14-21) quantify fine motor movements associated with hind limb locomotor including toe clearance, predominant paw position, trunk stability, and tail position. These fine motor movements are only considered if animals display consistent coordination. A BBB sub-score was applied to quantify these improvements independent of coordination.\nFIG. 8B depicts violin plots presenting distributions of the weekly average BBB sub-scores in the saline alone, Compound 4, and Compound 8 treatment cohorts of SCI rats. Each data point represents a weekly average BBB sub-score in the saline alone (control), Compound 4, and Compound 8 treatment cohorts as annotated on the X-axis. The numbers adjacent to the data points indicate the numbers of days post-SCI at which individual and treatment cohort weekly average BBB sub-scores were calculated. Statistical comparison of the treatment effects was performed using Friedman's test (repeated measures ANOVA for nonparametric values) with Dunn's correction for multiple comparisons and p-value of less than 0.05 defined as the criterion of statistical significance."}, "[2]": {"details": "week 7 post-SCI, 13 rats in group"}}}
{"substance": "TAT-Cys-rodent PTPRS wedge domain homodimer [Compound 8]", "values": [{"measurement": "locomotor performance measured with weekly average BBB scores vs saline alone", "setting": "[1]; RM ANOVA, Tukey, p<0.0001 for each compound", "result": "significant improvement"}, {"measurement": "improving the BBB scores, compared with Compound 4", "setting": "[1]; RM ANOVA, Tukey, p=0.0017", "result": "more efficacious"}, {"measurement": "recovery of movements of joints in the hind limbs, weight support, and coordination between limbs", "setting": "[1]; SCI rats, vs saline", "result": "promotes the recovery"}, {"measurement": "share of rats achieving BBB scores of 10 or above", "setting": "[1]; after 70 days post SCI, group (3)", "result": "More than half"}, {"measurement": "number of rats having BBB scores of 6 to 7", "setting": "[1]; day 7 post-SCI, 13 rats in group, 400 μg/rat s.c. once daily", "result": 6, "unit": "rats"}, {"measurement": "percentage of rats that achieved a BBB score of 11", "setting": "[1]; day 77 post-SCI", "result": "more than 20%"}, {"measurement": "percentage of rats that achieved a BBB score of 11", "setting": "[1]; day 84 post-SCI", "result": "about 50%"}, {"measurement": "maximum BBB score in the cohort", "setting": "[1]; end of study", "result": 11}, {"measurement": "number of rats with a BBB score of 10", "setting": "[1]; [2]", "result": 6, "unit": "rats"}, {"measurement": "number of rats with a BBB score of 11", "setting": "[1]; [2]", "result": 2, "unit": "rats"}, {"measurement": "rats with BBB scores of about 10 or 11", "setting": "[1]; week 12 post-SCI", "result": "8 out of 13"}, {"measurement": "sustained trend of continued functional improvement in BBB sub-score", "setting": "SCI rats; FIG. 8A", "result": "apparent"}, {"measurement": "effect on weekly average BBB sub-score vs saline alone", "setting": "SCI rats; Friedman's test, Dunn's correction, p=0.0008 Compound 8, p>0.9999 Compound 4", "result": "statistically significant effect"}, {"measurement": "effect on weekly average BBB sub-score vs Compound 4", "setting": "SCI rats; Friedman's test, Dunn's correction, p=0.0201", "result": "statistically significant effect"}, {"measurement": "functional improvement (BBB sub-score achievers) after discontinuation of administration", "setting": "SCI rats; after day 49", "result": "continued functional improvement"}, {"measurement": "onset of functional improvement in BBB sub-score", "setting": "SCI rats; day post-SCI, 0.8 mg/ml, 500 μl s.c. once daily day 1-49", "result": 21, "unit": "days"}, {"measurement": "percentage of rats achieving BBB sub-score of 1 or better, compared with Compound 4 or saline alone groups", "setting": "SCI rats; each time point post-SCI, e.g. day 28, 42, 63, 70, 77, 84", "result": "higher"}]}
